Experiments:
[1] = molecular target: T1, human PiT2 (Homo sapiens, UniProt Q08357); assay: 33PO4 uptake inhibition in CHO cells expressing human PiT2; assay type: cell-based; conditions: CHO cells transiently expressing human PiT2, pH 6.5
T1 construct: expressed in transfected cells; host or cells: CHO cells, transient transfection with Fugene HD
T1 sequence (Q08357 1-652): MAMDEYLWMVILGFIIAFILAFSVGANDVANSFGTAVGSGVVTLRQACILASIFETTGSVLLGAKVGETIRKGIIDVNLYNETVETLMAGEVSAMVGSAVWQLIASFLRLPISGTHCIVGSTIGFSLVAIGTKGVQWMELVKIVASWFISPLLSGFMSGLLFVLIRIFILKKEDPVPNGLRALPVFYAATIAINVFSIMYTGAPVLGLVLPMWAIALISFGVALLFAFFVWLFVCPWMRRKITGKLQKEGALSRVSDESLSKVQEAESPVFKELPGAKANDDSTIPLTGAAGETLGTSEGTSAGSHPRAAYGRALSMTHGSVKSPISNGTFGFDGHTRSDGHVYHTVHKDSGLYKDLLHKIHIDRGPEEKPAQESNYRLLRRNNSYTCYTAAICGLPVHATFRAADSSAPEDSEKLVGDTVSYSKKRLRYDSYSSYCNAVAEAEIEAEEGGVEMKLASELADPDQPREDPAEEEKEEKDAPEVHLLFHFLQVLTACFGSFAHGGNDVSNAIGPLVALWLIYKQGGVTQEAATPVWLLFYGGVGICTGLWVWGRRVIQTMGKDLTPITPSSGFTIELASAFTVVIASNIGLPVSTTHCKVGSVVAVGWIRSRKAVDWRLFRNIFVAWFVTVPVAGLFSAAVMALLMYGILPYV
Method: For transient expression, human NaPi-IIb expression plasmids, human PiT1 expression plasmids, human PiT2 expression plasmids, and Fugene HD Transfection (Promega Corporation) were added to CHO cells using a 96-well plate, and the plate was incubated in a C02 incubator for 16 hours. The medium was replaced with buffer A (145 mM choline chloride, 3 mM KCl, 1 mM CaCl2), 0.5 mM MgCl2, 5 mM glucose, 5 mM MES, (pH 6.5)), and then replaced with buffer B (145 mM NaCl, 3 mM KCl, 1 mM CaCl2, 0.5 mM MgCl2, 5 mM glucose, 5 mM MES (pH 6.5)) to which a test compound was added at the final concentration of 0.01, 0.03, 0.1, 0.3, 1, 3, 10, or 30 μM, buffer A to which DMSO was added, or buffer B to which DMSO was added. After a certain time, a 1/20 amount of buffer A containing ^33PO4 (PerkinElmer Japan G. K.) was added and reacted at room temperature. After washing with ice-cooled buffer A, a liquid scintillator (MicroScint™-20, item number 6013621, PerkinElmer Japan G.K.) was added, and the ^33PO4 uptake amount was measured with the top count (Top Count NXT, PerkinElmer Japan G.K.). The inhibition rate was determined by the following formula. Here, a certain time was set to 10 minutes. […]

[2] = test system: primary cells from kidney tissues of human ADPKD patients; assay: Inhibition of three-dimensional cyst formation using primary cells from kidney tissue of human ADPKD patient; assay type: cell-based; conditions: 168 h, test compound 30 μM, forskolin + ITS stimulation, 7 days 3D culture, average N=3, read-out: Inhibition rate (%) of cyst formation
Method: Primary cells were isolated from kidney tissues of human ADPKD patients. Under two-dimensions, the isolated cells were cultured for 2 days using DMEM/F-12 (Thermo Fisher Scientific, Inc.) supplemented with 10% FBS. Subsequently, three-dimensional culture was performed for 7 days using 3D Ready Atelocollagen (KOKEN CO., LTD.). During three-dimensional culture, 50 µM forskolin (Sigma-Aldrich Co. LLC) and ITS liquid media supplements (Sigma-Aldrich Co. LLC) were added as stimulating agents to some of the wells to form cysts, and a test compound was added at the final concentration of 30 μM. The test compound was also added to other wells at the final concentration of 30 μM. After 7 days of three-dimensional culture, it was fixed with 4% paraformaldehyde (Thermo Fisher Scientific, Inc.), and nucleic acid staining and cell membrane staining were performed with Hoechst 33342 (Thermo Fisher Scientific, Inc.) and CellLight Plasma Membrane-RFP, BacMam 2.0 (Thermo Fisher Scientific, Inc.). Three-dimensional imaging and volume analysis were performed using Operetta CLS and image analysis software Harmony (PerkinElmer Japan G.K.). The inhibition rate was determined by the following formula.

[3] = test system: pcy mice (naturally occurring PKD model); assay: Suppression of increase in renal volume and decrease in renal function in pcy mice; assay type: in vivo, mouse; conditions: compared to tolvaptan
Method: The pcy mice, a naturally occurring PKD model, were used to evaluate the effects of tolvaptan and compound 4 in Test Example 1 on (a) renal volume, (b) blood urea nitrogen (UN) concentration, (c) body weight, and (d) urine volume in pcy mice.
The pcy mice (5 weeks of age at the start of this test) were grouped into 3 groups of 13 mice each. Compound 4 or tolvaptan was administered to each of the test compound administration groups. The administration period was 5 weeks. Compound 4 was administered subcutaneously once daily and tolvaptan was administered subcutaneously at a weekly pace. Compound 4 was administered at 33-40 mg/kg per dose and tolvaptan was administered at 25-30 mg/kg per dose. Compound 4 and tolvaptan were administered after dissolved in 50% DMSO/50% glycerol. A group of mice of the parental line was provided as a normal control group (Normal Control) (N=7). The 50% DMSO/50% glycerol was administered to the normal control group and the Vehicle group of pcy mice at 1 mL/kg.
The left renal volume (renal volume (mL)) of mice was calculated by the following formula using echography 5 weeks after the start of administration of the test compound, as shown in FIG. 3a.
After that, blood was collected from the abdominal vena cava, plasma was collected, and euthanasia treatment was performed. Blood urea nitrogen (UN) concentration (Plasma UN (mg/L)) was measured using L-type Waco UN (Fujifilm Wako Pure Chemical Corporation), as shown in FIG. 3b.
In addition, the body weight (Body weight (g)) of mice was measured every 7 days after the start of administration of the test compound, as shown in FIG. 3c. Furthermore, the volume of urine (Urine volume (mL/day)) was calculated from the specific gravity and measured weight of urine 5 weeks after the start of administration of the test compound, as shown in FIG. 3d.

IC50 [1]: > 30 µM
Urine volume ([3]; 5 weeks after start of administration): no increase in urine volume
Compound: CCCN([C@H]1CC[C@H](C(=O)[O-])CC1)S(=O)(=O)c1cccc(C(=O)Nc2sc3c(c2C(=O)Nc2ccc(CCCc4ccc(C(=O)[O-])cc4)cc2)CCCC3)c1.[Na+].[Na+] [Compound 4, Disodium; 4-[3-[4-[[2-[[3-[(4-carboxylatocyclohexyl)-propylsulfamoyl]benzoyl]ami-no]-4,5,6,7-tetrahydro-1-benzothiophene-3-carbonyl]amino]phenyl]pro-pyl]benzoic acid]
inhibition at 30 µM [2]: 94.4%
Body weight (weight loss) ([3]; 5 weeks administration): less weight loss
Suppression effect on increase in renal volume ([3]; 33-40 mg/kg s.c. once daily, 5 weeks, left renal volume by echography): same degree of suppression effects
Suppression effect on decrease in renal function (blood urea nitrogen) ([3]; 33-40 mg/kg s.c. once daily, 5 weeks, plasma UN): same degree of suppression effects

Source: US20250302833A1, “PHARMACEUTICAL COMPOSITION FOR TREATING OR PREVENTING CYSTIC DISEASE” (CHUGAI SEIYAKU KABUSHIKI KAISHA, priority 2022, published 2025)
